We go through seven molecules from patent publication US11471468B2, “Methods and systems for conditioning of particulate crystalline materials” (Pearl Therapeutics, Inc., priority 2013, dated 2022).

Some results are limits rather than exact numbers.

Type in all cases: physicochemical
Data set [1] in a line: Particle size distribution by laser diffraction (Sympatec) after processing. Particulars: for Physical stability after micronization judged from size distribution: laser diffraction, Tables 4 and 5; for D10 / D50 / D90: micronized/annealed GP, scale-up ~1 kg batches, mean of n=3 replicates per collector; for Particle Size Distribution Initial Span / Particle Size Distribution Initial X50 / Particle Size Distribution Initial X90: micronized sucrose. The text has this:
When referred to herein, the term “optical diameter” indicates the size of a particle as measured using a laser diffraction particle size analyzer equipped with a dry powder dispenser (e.g., Sympatec GmbH, Clausthal-Zellerfeld, Germany).
(§1) A portion of the micronized GP was also conditioned using an in-process conditioning system wherein nitrogen conditioning gas was supplied to the in-process conditioning system and was controlled for flow rate, temperature and humidity. The conditioning gas was humidified through a droplet evaporation chamber after which it was directed to a mixing zone. In the mixing zone, the conditioning gas was mixed with the jet-milled aerosol comprising the micronized GP. The aerosol then entered a conditioning zone where annealing of the micronized GP occurred. The particle residence time through the conditioning zone was adjusted by means of the conditioning zone chamber geometry and/or the gas flow rate through the conditioning zone chamber. After passing through the conditioning zone, the micronized GP particles reached the cyclone-collection zone where the solid particles were separated from the gas phase and transported to a collection vessel. Upon completion of the batch processing, the collector was disengaged and transferred to a glove box for sampling. The sampling occurred in a <5% relative humidity environment. Samples were then analyzed for particle size distribution and amorphous content.
(§2) Both micronized sucrose batches were analyzed for particle size distribution by Sympatec laser diffraction.

Data set [2] in a line: Amorphous content by (dynamic) vapor sorption. Particulars: for Amorphous content by ethanol vapor sorption isotherm / Amorphous content by water vapor sorption isotherm: 25° C.; for Amorphous content by ethanol vapor sorption isotherm: FIG. 9 / FIG. 11; for Calculated Amorphous Content, Collector 1 / Calculated Amorphous Content, Collector 2: conditioned GP, dynamic vapor sorption, n=2 replicates per collector; for Amorphous content by water vapor sorption isotherm: FIG. 13.
Description: as §1
(§3) The amorphous content by vapor sorption and particle morphology for both batches were also assessed. FIG. 9 provides the ethanol vapor sorption isotherm at 25° C. for both batches of micronized budesonide.
(§4) The amorphous content by vapor sorption and particle morphology for both batches were also assessed. FIG. 11 provides the ethanol vapor sorption isotherm at 25° C. for both batches of micronized fluticasone.
All batches were also analyzed for amorphous content by dynamic vapor sorption using n=2 replicates per collector.
(§5) The amorphous content by vapor sorption and particle morphology for both batches of micronized sucrose were also assessed. FIG. 13 provides the water vapor sorption isotherm at 25° C. for both batches of micronized sucrose.

A short description of data set [3]: Particle size distribution by laser diffraction (Sympatec) after processing. The note with it: for D10 / D50 / D90 / Span: micronized fluticasone propionate; for Particle Size Distribution Initial X10: micronized sucrose.
The nature of data set [4]: Particle morphology by electron micrograph / SEM. The note with it: FIG. 10 / FIG. 12 / FIG. 14. The method, then: as §3, §4, §5
Data set [5] can be described thus: Physical stability: particle size distribution and fusing after 1-day exposure to 25° C. and 60% relative humidity. The note with it: micronized sucrose; for Physical Stability: 25° C./60% RH; for Stability of powder on exposure: Sucrose A by visual observation, Sucrose B exposed to 25° C./60% RH.
Description: When used to refer to the conditioned particulate material described herein, the terms “physical stability” and “physically stable” refer to a composition that is resistant to one or more of particle fusing, aggregation, agglomeration, and particle size changes. In certain embodiments, physical stability may be evaluated through exposing the particulate material to accelerated degradation conditions, such as increased temperature and/or humidity as described herein.
as §2

Data set [6] is described as follows: Stability diagram (glass transition plasticization curve combined with sorption isotherm). The note with it: from stability diagram FIG. 18. The text has this: Crystallization of an amorphous phase typically occurs rapidly when the amorphous material is exposed to conditions that exceed its glass transition temperature, usually twenty degrees Celsius above the glass transition temperature (Lechuga-Ballesteros, D.; Miller, D. P.; Zhang, J., Residual water in amorphous solids, measurement and effects on stability. In Progress in Amorphous Food and Pharmaceutical Systems, Levine, H., Ed. The Royal Society of Chemistry: London, 2002; pp 275-316). Exposure of amorphous material to temperature in excess of the glass transition can be achieved in the absence of any solvent by exposing the amorphous material to a stream of hot air above its glass transition temperature. However, the glass transition temperature is also a function of the fraction of solvent present in the amorphous material, an effect known as plasticization.
In addition, the solvent content held in an amorphous material is a function of the vapor concentration of the solvent surrounding the amorphous solid. The sorption isotherm of a given material is a representation of the amount of solvent in the amorphous material as a function of the solvent activity (which is proportional to the solvent vapor pressure to saturation solvent vapor pressure ratio) at a given temperature. […]

Setting [7] is: listed as Batch B - Collector 1.
Where [8] appears, read: listed as Batch B - Collector 2.
The mark [9] stands for this setting: listed as Batch C - Collector 1.
Where [10] appears, read: listed as Batch C - Collector 2.

As to `CCC(=O)O[C@]1(C(=O)SCF)[C@H](C)C[C@H]2[C@@H]3C[C@H](F)C4=CC(=O)C=C[C@]4(C)[C@@]3(F)[C@@H](O)C[C@@]21C` [Micronized Fluticasone propionate, Batch 1 (unannealed)], the “Physical stability after micronization judged from size distribution” value in data set [1] is reported as “agglomeration”. The “Ethanol relative pressure at which weight loss is seen” value in data set [2] (ethanol vapor sorption isotherm at 25° C.) is on record as 60 % p/po. The “Amorphous content by ethanol vapor sorption isotherm” value in data set [2] is reported as “remained substantially amorphous”. In data set [3], the D10 is 0.5 μm, the D50 came to 1.5 μm, the D90 was found to be 3.4 μm and the Span came to 2.0.

In the case of `CCC(=O)O[C@]1(C(=O)SCF)[C@H](C)C[C@H]2[C@@H]3C[C@H](F)C4=CC(=O)C=C[C@]4(C)[C@@]3(F)[C@@H](O)C[C@@]21C` [Micronized Fluticasone propionate, Batch 2 (annealed)], the “Physical stability after micronization judged from size distribution” value in data set [1] is on record as “good physical stability”. In addition, the “Amorphous content by ethanol vapor sorption isotherm” value in data set [2] was “stable and showed no crystallization event”. Moreover, the “Particle morphology by SEM, annealed compared with unannealed material” value in data set [4] was “smoother surfaces and more rounded edges”. Moreover, in data set [3], the D10 worked out at 0.5 μm, the D50 is 1.4 μm, the D90 is on record as 3.1 μm and the Span came to 1.9.

As for `C[N+]1(C)CCC(OC(=O)C(O)(c2ccccc2)C2CCCC2)C1` (single isomer, unassigned) [Batch B, Glycopyrrolate], in data set [1] (setting [7]), the D10 was 0.52 μm, the D50 was 1.47 μm and the D90 turned out to be 3.02 μm. In data set [1] (setting [8]), the D10 stood at 0.52 μm, the D50 is listed as 1.46 μm and the D90 is 2.99 μm. Besides, in data set [2], the “Calculated Amorphous Content, Collector 1” value is reported as 2.65% and the “Calculated Amorphous Content, Collector 2” value is given as 2.40%.

Regarding `OC[C@H]1O[C@@](CO)(O[C@H]2O[C@H](CO)[C@@H](O)[C@H](O)[C@H]2O)[C@@H](O)[C@@H]1O` [Sucrose B, Sucrose], in data set [1] (listed as Sucrose 2), the Particle Size Distribution Initial Span is 1.9, the “Particle Size Distribution Initial X50” value was found to be 2.2 μm and the “Particle Size Distribution Initial X90” value is recorded as 4.9 μm. For the same molecule, the “Amorphous content by water vapor sorption isotherm” value in data set [2] was “stable and showed no crystallization event”. Further, the “Particle morphology by SEM, annealed compared with unannealed material” value in data set [4] is “smoother surfaces and more rounded edges”. Besides, in data set [3] (listed as Sucrose 2), the “Particle Size Distribution Initial X10” value was 0.6 μm. Also, in data set [5], the “Physical Stability” value was “Stable,” and the “Stability of powder on exposure” value is listed as “good stability”. In addition, in data set [5] (T = 1 day at 25° C./60% RH), the Particle Size Distribution T = 1 day at 25° C./60% RH Span was 1.9, the “Particle Size Distribution T = 1 day at 25° C./60% RH X10” value was 0.7 μm, the “Particle Size Distribution T = 1 day at 25° C./60% RH X50” value worked out at 2.5 μm and the “Particle Size Distribution T = 1 day at 25° C./60% RH X90” value was found to be 5.2 μm.

As to `C[N+]1(C)CCC(OC(=O)C(O)(c2ccccc2)C2CCCC2)C1.[Br-]` (stereo not shown) [glycopyrrolate, 3-[(cyclopentylhydroxyphenylacetyl)oxy]-1,1-dimethylpyrrolidinium bromide], the “RH required to promote annealing” value in data set [6] (at 60° C.) was 10 % RH. The “RH at which fast crystallization of amorphous material will occur” value in data set [6] (in the range of 20-40° C.) is more than 50%.

In the case of `C[N+]1(C)CCC(OC(=O)C(O)(c2ccccc2)C2CCCC2)C1` (single isomer, unassigned) [Batch C, Glycopyrrolate], in data set [1] (setting [9]), the D10 is listed as 0.52 μm, the D50 is 1.47 μm and the D90 was 3.03 μm. In data set [1] (setting [10]), this molecule displayed a D10 of 0.51 μm, a D50 of 1.45 μm and a D90 of 2.96 μm. In data set [2], the “Calculated Amorphous Content, Collector 1” value is 2.65% and the “Calculated Amorphous Content, Collector 2” value was 2.45%.

As to `OC[C@H]1O[C@@](CO)(O[C@H]2O[C@H](CO)[C@@H](O)[C@H](O)[C@H]2O)[C@@H](O)[C@@H]1O` [Sucrose A, Sucrose], in data set [1] (listed as Sucrose 1), the Particle Size Distribution Initial Span was 2.4, the “Particle Size Distribution Initial X50” value is on record as 1.7 μm and the “Particle Size Distribution Initial X90” value turned out to be 4.5 μm. The “Water relative pressure at which weight loss is seen” value in data set [2] (water vapor sorption isotherm at 25° C.) stood at 30 % p/po. The “Amorphous content by water vapor sorption isotherm” value in data set [2] was “remained substantially amorphous”. For the same molecule, the “Particle Size Distribution Initial X10” value in data set [3] (listed as Sucrose 1) was 0.5 μm. Further, the “Physical Stability” value in data set [5] (listed as Sucrose 1) is given as “Unstable,”. In addition, the “Stability of powder on exposure” value in data set [5] was “fusing of the material”.
